How the values were obtained:
RET1ΔNC = target: T1, RET1ΔNC (Trypanosoma brucei, UniProt Q8WQX5); experiment: X-ray crystal structure, […] Å; type: binding; conditions: 0.5 mM UMPnPP, 1 mM MgCl2; active site; non-hydrolysable UTP analogue
T1 sequence (Q8WQX5 189-699): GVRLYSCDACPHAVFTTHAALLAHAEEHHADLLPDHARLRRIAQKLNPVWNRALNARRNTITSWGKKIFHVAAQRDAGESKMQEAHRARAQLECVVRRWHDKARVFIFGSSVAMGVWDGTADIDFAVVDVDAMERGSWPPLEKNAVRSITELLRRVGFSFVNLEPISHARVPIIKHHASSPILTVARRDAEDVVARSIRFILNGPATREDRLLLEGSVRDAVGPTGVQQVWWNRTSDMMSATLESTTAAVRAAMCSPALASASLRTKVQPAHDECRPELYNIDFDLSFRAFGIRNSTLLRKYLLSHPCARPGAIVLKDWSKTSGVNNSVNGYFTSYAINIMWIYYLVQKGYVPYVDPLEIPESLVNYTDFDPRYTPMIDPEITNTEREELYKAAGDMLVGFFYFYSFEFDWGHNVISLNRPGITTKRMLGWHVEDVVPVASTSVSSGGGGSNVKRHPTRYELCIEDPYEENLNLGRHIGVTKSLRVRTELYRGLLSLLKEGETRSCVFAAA

TUT4 = target: T2, TUT4 (Trypanosoma brucei, UniProt Q381M1); experiment: X-ray crystal structure, […] Å; type: binding; conditions: Mg2+
T2 sequence (Q381M1 1-333): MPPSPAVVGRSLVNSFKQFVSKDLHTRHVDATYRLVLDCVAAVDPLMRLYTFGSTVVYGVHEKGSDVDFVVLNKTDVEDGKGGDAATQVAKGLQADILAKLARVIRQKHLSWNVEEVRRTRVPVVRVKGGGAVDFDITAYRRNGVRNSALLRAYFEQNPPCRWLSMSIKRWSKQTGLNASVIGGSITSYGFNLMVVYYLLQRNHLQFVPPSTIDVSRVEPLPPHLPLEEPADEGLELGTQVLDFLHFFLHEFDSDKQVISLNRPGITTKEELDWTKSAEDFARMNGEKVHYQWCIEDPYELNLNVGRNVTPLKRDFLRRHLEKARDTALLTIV

Compound: O=c1ccn([C@@H]2O[C@H](COP(=O)(O)NP(=O)(O)OP(=O)(O)O)[C@@H](O)[C@H]2O)c(=O)[nH]1 [UMPnPP]
- X-ray crystal structure, 1.8 Å (soaked crystals) (RET1ΔNC): Crystals of RET1ΔNC in complex with the UTP analog UMPNPP were obtained by soaking

Compound: O=c1ccn([C@@H]2O[C@H](COP(=O)(O)OP(=O)(O)OP(=O)(O)O)[C@@H](O)[C@H]2O)c(=O)[nH]1 [UTP]
- X-ray crystal structure, 2.75 Å (TUT4; ternary complex with UpU, co-crystallised with UTP): structure of TUT4 from T. brucei with bound UTP and RNA-mimicking dinucleotide UpU

Compound: O=c1ccn([C@@H]2O[C@H](COP(=O)(O)O[C@H]3[C@@H](O)[C@H](n4ccc(=O)[nH]c4=O)O[C@@H]3CO)[C@@H](O)[C@H]2O)c(=O)[nH]1 [UpU]
- X-ray crystal structure, 2.75 Å (TUT4; ternary complex with UTP, crystals soaked in 1 mM UpU): structure of TUT4 from T. brucei with bound UTP and RNA-mimicking dinucleotide UpU
